Source: ChEMBL document CHEMBL1136406, “Amide analogues of TSA: synthesis, binding mode analysis and HDAC inhibition” (Bioorg Med Chem Lett, 2003)

Biological target: Histone deacetylase
Description: Inhibitory activity against histone deacetylase (HDAC)

Row | IC50 | SMILES
1 | 152 nM | CN(C)c1ccc(C(=O)NCCCCCC(=O)NO)cc1
2 | 359 nM | C[C@H](CCCCC(=O)NO)NC(=O)c1ccc(N(C)C)cc1
3 | 12187 nM | C[C@H](/C=C/C=C/C(=O)NO)NC(=O)c1ccc(N(C)C)cc1
